Measurements from patent US8119681B2, “2-[1-phenyl-5-hydroxy or methoxy-4alpha-methyl-hexahydrocyclopenta [ƒ]indazole-5-YL]ethyl phenyl derivatives as glucocorticoid receptor ligands” (Merck Sharp & Dohme Corp., priority 2006, dated 2012).

Target: T1, human GR (Homo sapiens, UniProt P04150)
T1 sequence (P04150 1-777): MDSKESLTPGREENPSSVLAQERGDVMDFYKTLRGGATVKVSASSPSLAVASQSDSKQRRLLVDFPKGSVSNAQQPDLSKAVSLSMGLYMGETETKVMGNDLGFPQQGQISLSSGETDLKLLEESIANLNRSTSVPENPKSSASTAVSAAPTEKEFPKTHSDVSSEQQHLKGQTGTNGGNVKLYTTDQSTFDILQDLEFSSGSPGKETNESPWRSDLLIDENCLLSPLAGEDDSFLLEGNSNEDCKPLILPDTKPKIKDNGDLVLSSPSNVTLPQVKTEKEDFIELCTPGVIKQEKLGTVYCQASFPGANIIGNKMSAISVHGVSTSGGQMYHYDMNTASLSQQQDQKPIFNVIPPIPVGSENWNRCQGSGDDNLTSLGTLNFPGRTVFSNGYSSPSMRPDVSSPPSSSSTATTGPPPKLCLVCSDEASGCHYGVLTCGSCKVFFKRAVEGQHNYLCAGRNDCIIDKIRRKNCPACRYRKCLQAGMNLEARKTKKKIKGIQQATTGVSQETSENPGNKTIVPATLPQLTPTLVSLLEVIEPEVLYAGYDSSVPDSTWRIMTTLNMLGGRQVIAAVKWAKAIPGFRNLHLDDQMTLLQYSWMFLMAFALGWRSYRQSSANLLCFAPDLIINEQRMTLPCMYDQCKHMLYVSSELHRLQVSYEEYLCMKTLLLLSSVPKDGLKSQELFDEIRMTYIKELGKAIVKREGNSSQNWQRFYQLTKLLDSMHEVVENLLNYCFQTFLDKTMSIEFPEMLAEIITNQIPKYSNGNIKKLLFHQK
Assay: Transrepression Assay (GITAR), TNFα-β-lactamase reporter gene in U937 cells
Format: cell-based
Parameters: U937 cells contain an endogenous glucocorticoid receptor (GR); endogenous in cells; host or cells: U937 cells stably transfected with the TNF-α promoter/β-lactamase reporter only
Details: U-937; 100 nM dexamethasone = 100% activity; read-out: maximal activity in the transrepression assay
Outline: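 Reporter readout used CCF2-AM loading for 70–90 min at room temperature after overnight (~18 h, 37 °C) PMA (5 ng/ml final) and LPS (100 ng/ml final) stimulation of compound-treated (30–45 min) TNFα-β-lactamase U937 cells expressing native GR. Activity was normalised to 100 nM dexamethasone repression.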

Emax, 5 to 100%:
C[C@]12Cc3cnn(-c4ccc(F)cc4)c3C=C1CC[C@@]2(O)CCc1ccccc1CNCC1CC1 [Example 103, (4αS,5R)-5-[2-(2-{[(cyclopropylmethyl}amino]methyl}phenyl)ethyl]-1-(4-fluorophenyl)-4α-methyl-1,4,4α,5,6,7-hexahydrocyclopenta[f]indazol-5-ol]
C[C@]12Cc3cnn(-c4ccc(F)cc4)c3C=C1CC[C@@]2(O)CCc1ccccc1CNCC(F)(F)F [Example 104, (4αS,5R)-1-(4-fluorophenyl)-4α-methyl-5-[2-[2-{[(2,2,2-trifluoroethyl)amino]methyl}phenyl)ethyl]-1,4,4α,5,6,7-hexahydrocyclopenta[f]indazol-5-ol]
CC(=O)NCc1ccccc1CC[C@]1(O)CCC2=Cc3c(cnn3-c3ccc(F)cc3)C[C@@]21C [Example 105, N-(2-{2-[(4αS,5R)-1-(4-fluorophenyl)-5-hydroxy-4α-methyl-1,4,4α,5,6,7-hexahydrocyclopenta[f]indazol-5-yl]ethyl}benzyl)acetamide]
CCNC(=O)Cc1ccccc1CC[C@]1(O)CCC2=Cc3c(cnn3-c3ccc(F)cc3)C[C@@]21C [Example 106, N-ethyl-2-(2-{2-[(4αS,5R)-1-(4-fluorophenyl)-5-hydroxy-4α-methyl-1,4,4α,5,6,7-hexahydrocyclopenta[f]indazol-5-yl]ethyl}phenyl)acetamide]
CN(C)C(=O)Cc1ccccc1CC[C@]1(O)CCC2=Cc3c(cnn3-c3ccc(F)cc3)C[C@@]21C [Example 108, 2-(2-{2-[(4αS,5R)-1-(4-fluorophenyl)-5-hydroxy-4α-methyl-1,4,4α,5,6,7-hexahydrocyclopenta[f]indazol-5-yl]ethyl}phenyl)-N,N-dimethylacetamide]
C[C@]12Cc3cnn(-c4ccc(F)cc4)c3C=C1CC[C@@]2(O)CCc1ccccc1CC(=O)NC1CC1 [Example 109, N-cyclopropyl-2-(2-{2-[(4αS,5R)-1-(4-fluorophenyl)-5-hydroxy-4α-methyl-1,4,4α,5,6,7-hexahydrocyclopenta[f]indazol-5-yl]ethyl}phenyl)acetamide]
C[C@]12Cc3cnn(-c4ccc(F)cc4)c3C=C1CC[C@@]2(O)CCc1cccc(F)c1N1CCC1=O [Example 110, 1-(2-fluoro-6-{2-[(4αS,5R)-1-(4-fluorophenyl)-5-hydroxy-4α-methyl-1,4,4α,5,6,7-hexahydrocyclopenta[f]indazol-5-yl]ethyl}phenyl)azetidin-2-one]
C[C@]12Cc3cnn(-c4ccc(F)cc4)c3C=C1CC[C@@]2(O)CCc1ccccc1N1CCCC1=O [Example 111, 1-(2-{2-[(4αS,5R)-1-(4-fluorophenyl)-5-hydroxy-4α-methyl-1,4,4α,5,6,7-hexahydrocyclopenta[f]indazol-5-yl]ethyl}phenyl)pyrrolidin-2-one]
C[C@]12Cc3cnn(-c4ccc(F)cc4)c3C=C1CC[C@@]2(O)CCc1cc(F)ccc1N [Example 112, (4αS,5R)-5-[2-(2-amino-5-fluorophenyl)ethyl]-1-(4-fluorophenyl)-4α-methyl-1,4,4α,5,6,7-hexahydrocyclopenta[f]indazol-5-ol]
C[C@]12Cc3cnn(-c4ccc(F)cc4)c3C=C1CC[C@@]2(O)CCc1ccccc1NS(C)(=O)=O [Example 115, N-(2-{2-[(4αS,5R)-1-(4-fluorophenyl)-5-hydroxy-4α-methyl-1,4,4α,5,6,7-hexahydrocyclopenta[f]indazol-5-yl]ethyl}phenyl)methanesulfonamide]
C[C@]12Cc3cnn(-c4ccc(F)cc4)c3C=C1CC[C@@]2(O)CCc1cccc(F)c1NS(=O)(=O)CC(F)(F)F [Example 116, 2,2,2-trifluoro-N-(2-fluoro-6-{2-[(4αS,5R)-1-(4-fluorophenyl)-5-hydroxy-4α-methyl-1,4,4α,5,6,7-hexahydrocyclopenta[f]indazol-5-yl]ethyl}phenyl)ethanesulfonamide]
CN(C)S(=O)(=O)Nc1ccc(F)cc1CC[C@]1(O)CCC2=Cc3c(cnn3-c3ccc(F)cc3)C[C@@]21C [Example 117, N′-(4-fluoro-2-{2-[(4αS,5R)-1-(4-fluorophenyl)-5-hydroxy-4α-methyl-1,4,4α,5,6,7-hexahydrocyclopenta[f]indazol-5-yl]ethyl}phenyl)-N,N-dimethylsulfamide]
C[C@]12Cc3cnn(-c4ccc(F)cc4)c3C=C1CC[C@@]2(O)CCc1ccccc1NS(=O)(=O)CC(F)(F)F [Example 118, 2,2,2-trifluoro-N-(2-{2-[(4αS,5R)-1-(4-fluorophenyl)-5-hydroxy-4α-methyl-1,4,4α,5,6,7-hexahydrocyclopenta[f]indazol-5-yl]ethyl}phenyl)ethanesulfonamide]
C[C@]12Cc3cnn(-c4ccc(F)cc4)c3C=C1CC[C@@]2(O)CCc1cc(F)ccc1NS(=O)(=O)CC(F)(F)F [Example 119, 2,2,2-trifluoro-N-(4-fluoro-2-{2-[(4αS,5R)-1-(4-fluorophenyl)-5-hydroxy-4α-methyl-1,4,4α,5,6,7-hexahydrocyclopenta[f]indazol-5-yl]ethyl}phenyl)ethanesulfonamide]
CC(C)S(=O)(=O)c1ccccc1CC[C@]1(O)CCC2=Cc3c(cnn3-c3ccc(F)cc3)C[C@@]21C [Example 120, (4αS,5R)-1-(4-fluorophenyl)-5-{2-[2-(isopropylsulfonyl)phenyl]ethyl}-4α-methyl-1,4,4α,5,6,7-hexahydrocyclopenta[f]indazol-5-ol]
COC(=O)Nc1ccccc1CC[C@]1(O)CCC2=Cc3c(cnn3-c3ccc(F)cc3)C[C@@]21C [Example 121, methyl (2-{2-[(4αS,5R)-1-(4-fluorophenyl)-5-hydroxy-4α-methyl-1,4,4α,5,6,7-hexahydrocyclopenta[f]indazol-5-yl]ethyl}phenyl)carbamate]
CCOC(=O)Nc1c(F)cccc1CC[C@]1(O)CCC2=Cc3c(cnn3-c3ccc(F)cc3)C[C@@]21C [Example 122, ethyl (2-fluoro-6-{2-[(4αS,5R)-1-(4-fluorophenyl)-5-hydroxy-4α-methyl-1,4,4α,5,6,7-hexahydrocyclopenta[f]indazol-5-yl]ethyl}phenyl)carbamate]
COC(=O)Nc1c(F)cccc1CC[C@]1(O)CCC2=Cc3c(cnn3-c3ccc(F)cc3)C[C@@]21C [Example 123, methyl (2-fluoro-6-{2-[(4αS,5R)-1-(4-fluorophenyl)-5-hydroxy-4α-methyl-1,4,4α,5,6,7-hexahydrocyclopenta[f]indazol-5-yl]ethyl}phenyl)carbamate]
COC(=O)Nc1ccc(F)cc1CC[C@]1(O)CCC2=Cc3c(cnn3-c3ccc(F)cc3)C[C@@]21C [Example 124, methyl (4-fluoro-6-{2-[(4αS,5R)-1-(4-fluorophenyl)-5-hydroxy-4α-methyl-1,4,4α,5,6,7-hexahydrocyclopenta[f]indazol-5-yl]ethyl}phenyl)carbamate]
CCOC(=O)Nc1ccc(F)cc1CC[C@]1(O)CCC2=Cc3c(cnn3-c3ccc(F)cc3)C[C@@]21C [Example 125, ethyl (4-fluoro-2-{2-[(4αS,5R)-1-(4-fluorophenyl)-5-hydroxy-4α-methyl-1,4,4α,5,6,7-hexahydrocyclopenta[f]indazol-5-yl]ethyl}phenyl)carbamate]
C[C@]12Cc3cnn(-c4ccc(F)cc4)c3C=C1CC[C@@]2(O)CCc1cccc(F)c1NC(=O)C(F)(F)F [Example 126, 2,2,2-trifluoro-N-(2-fluoro-6-{2-[(4αS,5R)-1-(4-fluorophenyl)-5-hydroxy-4α-methyl-1,4,4α,5,6,7-hexahydrocyclopenta[f]indazol-5-yl]ethyl}phenyl)acetamide]
C[C@]12Cc3cnn(-c4ccc(F)cc4)c3C=C1CC[C@@]2(O)CCc1ccccc1NC(=O)C(F)(F)F [Example 127, 2,2,2-trifluoro-N-(2-{2-[(4αS,5R)-1-(4-fluorophenyl)-5-hydroxy-4α-methyl-1,4,4α,5,6,7-hexahydrocyclopenta[f]indazol-5-yl]ethyl}phenyl)acetamide]
CC(=O)Nc1c(F)cccc1CC[C@]1(O)CCC2=Cc3c(cnn3-c3ccc(F)cc3)C[C@@]21C [Example 128, N-(2-fluoro-6-{2-[(4αS,5R)-1-(4-fluorophenyl)-5-hydroxy-4α-methyl-1,4,4α,5,6,7-hexahydrocyclopenta[f]indazol-5-yl]ethyl}phenyl)acetamide]
